Among the test systems are 786-0 renal; CAKI-1 renal; HCC-2998 colon; HCT-15 colon; MOLT-4 leukemia; NCI-H460 lung; RPMI-8226 leukemia; UACC-62 melanoma; KM12 colon; SF-539 CNS.
Common to all, as to assay: NCI-60 cell line screen, 48 h

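48-hour exposure; five concentrations; linearly interpolated endpoints. At the GI50, growth is halved. At the TGI there is no net growth.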

For the compound `CCN(CC)CCCCC1CCN(CC(=O)N2CC(C)C(=O)Nc3ccccc32)CC1` (configuration not stated), the TGI in the experiment with 786-0 renal, in the experiment with CAKI-1 renal, in the experiment with HCC-2998 colon, with HCT-15 colon, in the experiment on MOLT-4 leukemia and with NCI-H460 lung was over 100 µM in each case. Besides, the TGI with RPMI-8226 leukemia and with UACC-62 melanoma was over 100 µM each time.
As to `S=C(Nc1ccc(-c2nc3ccccc3[nH]2)cc1)NC1CCCCC1`, the GI50 in the experiment on 786-0 renal is 33.2 µM; with HCC-2998 colon it was 16.4 µM; in the experiment on HCT-15 colon, 16.2 µM; with KM12 colon it was 22.5 µM; with MOLT-4 leukemia, 28.3 µM; in the experiment on RPMI-8226 leukemia it was 16.6 µM. Further, the GI50 was 22.6 µM with SF-539 CNS and 15.3 µM in the experiment on UACC-62 melanoma. Further, the TGI with CAKI-1 renal is 55.2 µM; with HCC-2998 colon it was 32.4 µM; with HCT-15 colon it was 37.9 µM; with KM12 colon, 63.6 µM; in the experiment with MOLT-4 leukemia, over 100 µM; with RPMI-8226 leukemia it was 90.2 µM. This compound also registered a TGI in the experiment with SF-539 CNS of 48.5 µM.
Regarding `CC(=O)NC(CCCCNC(=O)OCc1ccccc1)C(=O)NCc1ccccc1` (configuration not stated), the TGI in the experiment with 786-0 renal, in the experiment on CAKI-1 renal, in the experiment with HCC-2998 colon, with HCT-15 colon, in the experiment with KM12 colon and in the experiment on MOLT-4 leukemia was over 100 µM each time. Besides, the TGI in the experiment with NCI-H460 lung, in the experiment on RPMI-8226 leukemia, in the experiment with SF-539 CNS and with UACC-62 melanoma was over 100 µM in each case.
Take `C=CCn1c(C)nc2cc(Nc3nc(Nc4ccc5nc(C)n(CC=C)c5c4)c4ccccc4n3)ccc21`: the GI50 was 0.312 µM with 786-0 renal; 1.61 µM in the experiment on CAKI-1 renal; 1.17 µM in the experiment with HCC-2998 colon; 0.254 µM with KM12 colon; 0.229 µM with MOLT-4 leukemia; 1.24 µM in the experiment on RPMI-8226 leukemia. Further, in the experiment with SF-539 CNS, the GI50 is 1.03 µM. For the same compound, the TGI worked out at 1.08 µM in the experiment with 786-0 renal; 3.03 µM with CAKI-1 renal; 2.5 µM with HCC-2998 colon; 0.659 µM in the experiment with KM12 colon; 0.629 µM in the experiment on MOLT-4 leukemia; 3.93 µM with RPMI-8226 leukemia. The compound further had a TGI in the experiment with SF-539 CNS of 2.22 µM.
In the case of `COc1ccc2c(c1)sc1nc(-c3ccccc3)c(-c3ccsc3)n12`, the GI50 is 7.58 µM with 786-0 renal; 5.04 µM in the experiment with CAKI-1 renal; 4.86 µM with HCC-2998 colon; 2.91 µM in the experiment with HCT-15 colon; 3.7 µM with KM12 colon; 4.24 µM in the experiment with MOLT-4 leukemia. Besides, the GI50 with NCI-H460 lung was 4.45 µM; in the experiment on SF-539 CNS it was 2.62 µM; in the experiment on UACC-62 melanoma, 3.52 µM. Also, the TGI in the experiment on 786-0 renal is over 100 µM; with CAKI-1 renal it was over 100 µM; with HCC-2998 colon, 93.1 µM; in the experiment on HCT-15 colon it was over 100 µM; with KM12 colon, over 100 µM; with MOLT-4 leukemia, over 100 µM. Moreover, the TGI in the experiment on NCI-H460 lung, in the experiment with SF-539 CNS and with UACC-62 melanoma was over 100 µM in each case.
Turning to `N#CCCc1nc2ccc(Br)cc2c(=O)n1CCO`, the TGI with 786-0 renal, in the experiment with CAKI-1 renal, in the experiment on HCC-2998 colon, with HCT-15 colon, in the experiment with KM12 colon and with MOLT-4 leukemia was over 100 µM each time. Moreover, the TGI in the experiment with RPMI-8226 leukemia, in the experiment with SF-539 CNS and in the experiment on UACC-62 melanoma was over 100 µM throughout.
On to `COC1=CC23C=CC1[C@@H](c1ccccc1)C2=C(C)C(=O)N3C(=O)NC1CCCCC1` (some centres not stated), for which the TGI in the experiment with 786-0 renal was 32.4 µM; in the experiment with CAKI-1 renal, 45.1 µM; in the experiment with HCC-2998 colon, 52 µM; in the experiment on HCT-15 colon it was 29.1 µM; in the experiment on KM12 colon, over 100 µM; in the experiment on MOLT-4 leukemia, 45.9 µM. For the same compound, the TGI in the experiment with NCI-H460 lung stood at 42.2 µM; in the experiment on SF-539 CNS, 39.2 µM; in the experiment with UACC-62 melanoma, 47.6 µM.
On to `CCOc1ccccc1NC(=O)/C=C1\NC(=O)CS1`, for which the TGI with 786-0 renal, in the experiment on CAKI-1 renal, in the experiment with HCC-2998 colon, in the experiment on KM12 colon, in the experiment on MOLT-4 leukemia and with NCI-H460 lung was over 100 µM each time. The TGI with RPMI-8226 leukemia, with SF-539 CNS and in the experiment on UACC-62 melanoma was over 100 µM each time.
Regarding `O=C1C(Br)=C[C@H]2C3C=CC(Br)(C3=O)[C@@H]12` (some centres not stated), the TGI was found to be 48.2 µM in the experiment on 786-0 renal; 24 µM with CAKI-1 renal; 26.2 µM with HCC-2998 colon; 24.6 µM with HCT-15 colon; 24.4 µM with KM12 colon; 27.2 µM with MOLT-4 leukemia. Moreover, the TGI in the experiment on RPMI-8226 leukemia was over 100 µM; with SF-539 CNS, 39.4 µM; in the experiment with UACC-62 melanoma, 14.9 µM.
With `CC(=O)NC1=N/C(=C/c2cc([N+](=O)[O-])ccc2O)CN1C`, the TGI in the experiment on 786-0 renal, in the experiment with CAKI-1 renal, in the experiment on HCC-2998 colon, in the experiment on HCT-15 colon, in the experiment with KM12 colon and in the experiment with MOLT-4 leukemia was over 100 µM each time. Further, the TGI in the experiment on NCI-H460 lung, in the experiment with SF-539 CNS and with UACC-62 melanoma was over 100 µM each time.
In the case of `Cc1nc(N)sc1C(=O)/C=C/c1ccc(/C=C/C(=O)c2sc(NC(=O)CCCCCCCCC(=O)Nc3nc(C)c(C(=O)/C=C/c4ccc(/C=C/C(=O)c5sc(N)nc5C)cc4)s3)nc2C)cc1`, the TGI in the experiment on 786-0 renal, with CAKI-1 renal, with HCC-2998 colon, with HCT-15 colon, in the experiment on KM12 colon and in the experiment with MOLT-4 leukemia was over 100 µM in each case. The results for the TGI in the experiment with NCI-H460 lung, in the experiment with SF-539 CNS and with UACC-62 melanoma were over 100 µM, over 100 µM and 87.8 µM, respectively.
`COc1ccc2c(c1)C(=O)CC(N)C2` (configuration not stated): the TGI in the experiment with 786-0 renal, with CAKI-1 renal, in the experiment on HCC-2998 colon, with HCT-15 colon, with KM12 colon and in the experiment on MOLT-4 leukemia was over 100 µM throughout. For the same compound, the TGI with NCI-H460 lung, in the experiment on RPMI-8226 leukemia and in the experiment on UACC-62 melanoma was over 100 µM throughout.
On to `CCN(CC)CCC1CC/C(=C\c2ccc(OC)cc2)C1=O` (configuration not stated), for which the TGI in the experiment with 786-0 renal, with CAKI-1 renal, with HCC-2998 colon, in the experiment on HCT-15 colon, in the experiment on KM12 colon and in the experiment with MOLT-4 leukemia was over 100 µM each time. The TGI with RPMI-8226 leukemia is over 100 µM; with SF-539 CNS it was over 100 µM; with UACC-62 melanoma, 34.7 µM.

Values taken from PubChem BioAssay (NCI).
